Patent US10233179B2, “Thiazoles and uses thereof” (AbbVie Inc., priority 2013, dated 2019)

Assays:
HEp-2 cells = test: Cytotoxicity assay (MTT) in parallel with the antiviral assay; type: cell-based
Method: HEp-2 cells and RSV (Group A, Long Strain) were obtained from the American Type Culture Collection (Manassas, Va.). Cytotoxicity of the compounds was determined in experiments done in parallel with the antiviral assays. To do this, 100 μL of assay medium was added to the wells of HEp-2 cells pretreated with 100 μL serially diluted compounds as described above. After 4 days of incubation, the viability of the cells was determined by the MTT assay in the same way as detailed in the “Antiviral Assay” method. Results were expressed as 50% toxicity dose (TD50) values. Compounds were tested to determine both their antiviral and toxicity to determine their therapeutic window. Determination of the EC50 and TD50 of these active compounds were repeated one additional time to confirm the window.

[1] = tested on: RSV (Group A, Long Strain); test: Antiviral cytopathic effect (CPE) protection assay, MTT readout; type: cell-based; details: human respiratory syncytial virus, 96 h; HEp-2 cells, 0.2 MOI RSV, 4 days incubation, protection from CPE by MTT
Method: HEp-2 cells and RSV (Group A, Long Strain) were obtained from the American Type Culture Collection (Manassas, Va.).
A cytopathic effect (CPE) protection assay was performed to determine the ability of a compound to protect the cells from viral infection and thus the CPE induced by viral infection. 96-Well plates were first seeded with 3×10^3 HEp-2 cells per well in Dulbecco's modified Eagle's medium (DMEM) containing 10% fetal bovine serum (FBS). One day after the cells were seeded, they were preincubated with serial dilutions of compounds prepared in 100 μL assay medium (DMEM mixed with F12 medium at a 1:1 ratio, supplemented with 2% FBS and 1 mM sodium pyruvate) for 1 hour at 37° C. 100 μL of assay medium containing 0.2 multiplicity of infection (MOI) of RSV was then added to each well of cells. In addition to wells containing infected cells incubated with compounds, each plate also contained replicates of two kinds of controls: (1) Virus control contained cells infected with 0.2 MOI of RSV in assay medium, (2) Uninfected cell control contained cells incubated with assay medium only. After 4 days of incubation at 37° C., the viability of cells was assessed using MTT (Thiazolyl blue tetrazolium bromide, Sigma). A stock solution of MTT, at a concentration of 4 mg/mL in phosphate-buffered saline, was added to all wells at 25 μL per well. Plates were further incubated for 4 hours, and each well was then treated with 50 μL of a solution containing 20% sodium dodecyl sulfate (SDS) and 0.02 N HCl. After an overnight incubation, the plates were measured on a BioTek® microtiter plate reader at wavelengths of 570 nm and 650 nm. The MTT detection is based on the fact that viable (uninfected) cells can reduce the tetrazolium salts into colored formazan products, which can then be quantitated by spectrometry. Based on the spectrometric absorbance of each sample, the percent of protection from CPE, which is an indicator of protection from viral infection, can be calculated for each compound and the 50% effective concentrations (EC50) can be calculated using a nonlinear regression curve fitting equation provided by the GraphPad Prism® 4 software.
Compounds were tested to determine both their antiviral and toxicity to determine their therapeutic window. Determination of the EC50 and TD50 of these active compounds were repeated one additional time to confirm the window.

[2] = uninfected HEp-2 cells, 4 days incubation, MTT viability

SMILES | MTT TD50 (HEp-2 cells; [2]) [µM] | EC50 [1] [nM] | MTT TD50 (HEp-2 cells; human, 4 days) [µM]
FC1(F)CCC(CN(Cc2cccn2-c2nncs2)Cc2cccn2-c2nncs2)CC1 [Example 23, 1-(4,4-difluorocyclohexyl)-N,N-bis{[1-(1,3,4-thiadiazol-2-yl)-1H-pyrrol-2-yl]methyl}methanamine] | >100 | 2400 | 
c1cc(CN(Cc2cccn2-c2nccs2)CC2CCCO2)n(-c2nccs2)c1 (stereo not shown) [Example 33, 1-(tetrahydrofuran-2-yl)-N,N-bis{[1-(1,3-thiazol-2-yl)-1H-pyrrol-2-yl]methyl}methanamine] | 16 | 4600 | 
Clc1cccc(Cl)c1CN(Cc1cccn1-c1nccs1)Cc1cccn1-c1nccs1 [Example 36, 1-(2,6-dichlorophenyl)-N,N-bis{[1-(1,3-thiazol-2-yl)-1H-pyrrol-2-yl]methyl}methanamine] | 24 | 33 | 
C[C@H](c1ccccc1Cl)N(Cc1cccn1-c1nncs1)Cc1cccn1-c1nncs1 [Example 19, (1R)-1-(2-chlorophenyl)-N,N-bis{[1-(1,3,4-thiadiazol-2-yl)-1H-pyrrol-2-yl]methyl}ethanamine] | >32 | 2800 | 
c1ccc(N(Cc2cccn2-c2nccs2)Cc2cccn2-c2nccs2)cc1 [Example 53, N,N-bis{[1-(1,3-thiazol-2-yl)-1H-pyrrol-2-yl]methyl}aniline] | >32 | 2700 | 
FC(F)(F)Cn1cc(CN(Cc2cccn2-c2nccs2)Cc2cccn2-c2nccs2)cn1 [Example 58, 1-[1-(1,3-thiazol-2-yl)-1H-pyrrol-2-yl]-N-{[1-(1,3-thiazol-2-yl)-1H-pyrrol-2-yl]methyl}-N-{[1-(2,2,2-trifluoroethyl)-1H-pyrazol-4-yl]methyl}methanamine] | 49 | 520 | 
Cc1cc(N(Cc2cccn2-c2nncs2)Cc2cccn2-c2nncs2)n(-c2ccc(F)cc2)n1 [Example 43, 1-(4-fluorophenyl)-3-methyl-N,N-bis{[1-(1,3,4-thiadiazol-2-yl)-1H-pyrrol-2-yl]methyl}-1H-pyrazol-5-amine] | >32 | > 32000 | 
Clc1ccc(CN(Cc2cccn2-c2nncs2)Cc2cccn2-c2nncs2)c(Cl)c1 [Example 42, 1-(2,4-dichlorophenyl)-N,N-bis{[1-(1,3,4-thiadiazol-2-yl)-1H-pyrrol-2-yl]methyl}methanamine] | 32 | > 32000 | 
Cc1c(C(C)N(Cc2ccc(Cl)cc2-c2ccnc(C(F)(F)F)n2)Cc2cccn2-c2nccs2)cnn1-c1cccc(F)c1 (stereo not shown) [Example 5, N-{4-chloro-2-[2-(trifluoromethyl)pyrimidin-4-yl]benzyl}-1-[1-(3-fluorophenyl)-5-methyl-1H-pyrazol-4-yl]-N-{[1-(1,3-thiazol-2-yl)-1H-pyrrol-2-yl]methyl}ethanamine] | 0.11 | > 110 | 
C[C@H](c1ccccc1Cl)N(Cc1cccn1-c1nccs1)Cc1cccn1-c1nccs1 [Example 48, (1R)-1-(2-chlorophenyl)-N,N-bis{[1-(1,3-thiazol-2-yl)-1H-pyrrol-2-yl]methyl}ethanamine] | 6.7 | 110 | 
FC(F)(F)c1ccc(CN(Cc2cccn2-c2nncs2)Cc2cccn2-c2nncs2)cc1 [Example 54, 1-[1-(1,3,4-thiadiazol-2-yl)-1H-pyrrol-2-yl]-N-{[1-(1,3,4-thiadiazol-2-yl)-1H-pyrrol-2-yl]methyl}-N-[4-(trifluoromethyl)benzyl]methanamine] | 21 | > 21000 | 
c1ccc(C2(CCN(Cc3cccn3-c3nncs3)Cc3cccn3-c3nncs3)CC2)nc1 [Example 21, 2-[1-(pyridin-2-yl)cyclopropyl]-N,N-bis{[1-(1,3,4-thiadiazol-2-yl)-1H-pyrrol-2-yl]methyl}ethanamine] | >32 | 62 | 
Cc1c([C@@H](C)N(Cc2cccn2-c2nccs2)Cc2cccn2-c2nccs2)cnn1-c1cccc(F)c1 [Example 3, (1R)-1-[1-(3-fluorophenyl)-5-methyl-1H-pyrazol-4-yl]-N,N-bis{[1-(1,3-thiazol-2-yl)-1H-pyrrol-2-yl]methyl}ethanamine] | >32 | 960 | 
COc1ccc(CN(Cc2cccn2-c2nncs2)Cc2cccn2-c2nncs2)c(OC)c1 [Example 8, 1-(2,4-dimethoxyphenyl)-N,N-bis{[1-(1,3,4-thiadiazol-2-yl)-1H-pyrrol-2-yl]methyl}methanamine] | 22 | 240 | 
CC(Cc1cccs1)N(Cc1cccn1-c1nccs1)Cc1cccn1-c1nccs1 (stereo not shown) [Example 64, N,N-bis{[1-(1,3-thiazol-2-yl)-1H-pyrrol-2-yl]methyl}-1-(thiophen-2-yl)propan-2-amine] |  | 330 | 5.6
FC(F)n1ccnc1CN(Cc1cccn1-c1nccs1)Cc1cccn1-c1nccs1 [Example 59, 1-[1-(difluoromethyl)-1H-imidazol-2-yl]-N,N-bis{[1-(1,3-thiazol-2-yl)-1H-pyrrol-2-yl]methyl}methanamine] | 35 | 4100 | 
CC(c1ccc(Cl)c(Cl)c1)N(Cc1cccn1-c1nccs1)Cc1cccn1-c1nccs1 (stereo not shown) [Example 46, 1-(3,4-dichlorophenyl)-N,N-bis{[1-(1,3-thiazol-2-yl)-1H-pyrrol-2-yl]methyl}ethanamine] | >32 | 550 | 
c1cc(CN(CCC2(c3ccncc3)CC2)Cc2cccn2-c2nncs2)n(-c2nncs2)c1 [Example 27, 2-[1-(pyridin-4-yl)cyclopropyl]-N,N-bis{[1-(1,3,4-thiadiazol-2-yl)-1H-pyrrol-2-yl]methyl}ethanamine] |  | 810 | >32
N#Cc1cc(CN(Cc2cccn2-c2nccs2)Cc2cccn2-c2nccs2)cs1 [Example 67, 4-[(bis{[1-(1,3-thiazol-2-yl)-1H-pyrrol-2-yl]methyl}amino)methyl]thiophene-2-carbonitrile] | >32 | 82 | 
CC(C)CN(Cc1cccn1-c1nccs1)Cc1cccn1-c1nccs1 [Example 39, 2-methyl-N,N-bis{[1-(1,3-thiazol-2-yl)-1H-pyrrol-2-yl]methyl}propan-1-amine] | 8.3 | 3400 | 
Cn1nccc1N(Cc1cccn1-c1nncs1)Cc1cccn1-c1nncs1 [Example 9, 1-methyl-N,N-bis{[1-(1,3,4-thiadiazol-2-yl)-1H-pyrrol-2-yl]methyl}-1H-pyrazol-5-amine] | >32 | 4900 | 
FC(F)(F)c1cccc(CN(Cc2cccn2-c2nncs2)Cc2cccn2-c2nncs2)c1 [Example 16, 1-[1-(1,3,4-thiadiazol-2-yl)-1H-pyrrol-2-yl]-N-{[1-(1,3,4-thiadiazol-2-yl)-1H-pyrrol-2-yl]methyl}-N-[3-(trifluoromethyl)benzyl]methanamine] | 30 | 2100 | 
c1cc(CN(Cc2cccn2-c2nncs2)CC2C[C@H]3CC[C@@H]2C3)n(-c2nncs2)c1 (stereo partly drawn) [Example 11, 1-[(1R,4S)-bicyclo[2.2.1]hept-2-yl]-N,N-bis{[1-(1,3,4-thiadiazol-2-yl)-1H-pyrrol-2-yl]methyl}methanamine] | 26 | 560 | 
c1coc(CN(Cc2cccn2-c2nccs2)Cc2cccn2-c2nccs2)c1 [Example 63, 1-(furan-2-yl)-N,N-bis{[1-(1,3-thiazol-2-yl)-1H-pyrrol-2-yl]methyl}methanamine] | 20 | 260 | 
c1cc(CN(Cc2cccn2-c2nncs2)C[C@H]2CCOC2)n(-c2nncs2)c1 [Example 61, 1-[(3R)-tetrahydrofuran-3-yl]-N,N-bis{[1-(1,3,4-thiadiazol-2-yl)-1H-pyrrol-2-yl]methyl}methanamine] | >100 | > 100000 | 
Fc1ccccc1CN(Cc1cccn1-c1nncs1)Cc1cccn1-c1nncs1 [Example 15, 1-(2-fluorophenyl)-N,N-bis{[1-(1,3,4-thiadiazol-2-yl)-1H-pyrrol-2-yl]methyl}methanamine] | 67 | 120 | 
